Entries after “also recorded” stand apart in the source; their conditions may differ.
Tests used:
[1] = test system: HeLa; NIH 3T3; HEK298; COS; and 16HBE cell lines; test: In vitro transfection activity of NeoChol and NeoChol/DOPE (luciferase); assay type: cell-based; settings: various charge ratios (1.3-26 NeoChol/DNA, 0.66-26 NeoChol/DOPE/DNA); 5 cell lines; NeoChol alone weaker particularly in 16HBE
Experimental: (§1) FIG. 8: Transfecting activity in various cell lines (HEK293, NIH3T3, HeLa, COS, 16HBE), which were transfected with the transfecting compound NeoChol. The expression of the reporter gene can be indicated as a function of the various charge ratio of the lipoplexes and plasmid DNA. The various cell lines were transfected according to the protocol as described in Example 8, using NeoChol/DNA lipoplexes, which were prepared by mixing 5 μg of plasmid DNA expressing luciferase. The data can be expressed in relative light units (RLU) per mg of cellular proteins.
as §1, with “FIG. 9: Expression of luciferase” for “FIG. 8: Transfecting activity”, “compound NeoChol/DOPE (1:1).” for “compound NeoChol.”, “gene is” for “gene can be”, “using NeoChol/DOPE/DNA” for “using NeoChol/DNA”, “data are” for “data can be”, “proteins. […]” for “proteins.”

[2] = Electrophoretic gel shift studies (mean positive charge); assay type: physicochemical; settings: complexed with nucleic acids
Experimental: (§2) This study was carried out for lipoplexes comprising various amounts of KanaChol: 6.6, 13.2, 33, 66 or 132 nmol of KanaChol per 5 μg of DNA. In order to determine the theoretical mean charge ratio, it was considered that 1 μg of DNA represents 3 nmol of negative charges and that 3 amine groups of kanamycin are protonated at neutral pH during the formation of the lipoplexes and the transfection.

HeLa cells = test: Cytotoxicity by total extractable cellular proteins in the cell lysate; assay type: cell-based; settings: 48 hours post-transfection, high charge ratio
Experimental: FIG. 4: Cytotoxicity of the transfecting compound KanaChol. HeLa cells were transfected in accordance with the protocol described in Example 3 using lipoplexes prepared by mixing 5 μg of plasmid DNA expressing luciferase with the amount of lipid required to form lipoplexes characterized by the charge ratio indicated. At 48 hours post-transfection, the cells were recovered and the toxicity was quantified using the total amount of cellular proteins in the cell lysate as an index of the number of cells, cell death producing a decrease in the extractable proteins. The total cellular proteins in the cell lysate is indicated as a function of the charge ratio of the lipoplexes. The data are expressed as concentration of extractable cellular proteins in the cell lysate (at fixed volume).
FIG. 5: Cytotoxicity of the KanaChol/DOPE (molar ratio 1:1) lipsomes. […] At 48 hours post-transfection, the cells were recovered and the toxicity was quantified using the total amount of cellular proteins in the cell lysate as an index of the number of cells, cell death producing a decrease in the extractable proteins. […] The data are expressed as concentration of extractable cellular proteins in the cell lysate (at fixed volume).
Thus, the cytotoxicity of the KanaChol was also measured at various charge ratios with the DNA. […]

[3] = test system: HeLa, HEK293 and COS cells; test: In vitro transfection, dose-response (luciferase reporter gene expression); assay type: cell-based
Experimental: FIG. 2: Dose-response curves of the in vitro transfection activity of the transfecting compound “KanaChol”. The expression of the reporter gene is indicated as a function of the charge ratio of the lipoplexes formed with the plasmid DNA. The HeLa, HEK293 and COS cells were transfected in accordance with the protocol described in Example 3 using lipoplexes prepared by mixing 5 μg of plasmid DNA expressing luciferase with the required amount of lipid. The data are expressed in relative light units (RLU) per mg of cellular proteins.
FIG. 3: Dose-response curves of the in vitro transfection activity of the KanaChol/DOPE (molar ratio 1:1) liposomes. The expression of the reporter gene is indicated as a function of the charge ratio of the lipoplexes formed with the plasmid DNA. The HeLa, HEK293 and COS cells were transfected in accordance with the protocol described in Example 4 using lipoplexes prepared by mixing 5 μg of plasmid DNA expressing luciferase with the required amount of lipid to form lipoplexes characterized by the charge ratio indicated. The data are expressed in relative light units (RLU) per mg of cellular proteins.
as §2
Preparation of the KanaChol/DNA lipoplexes: the KanaChol obtained according to Example 1 was dissolved in a 20 mM Hepes buffer solution (pH 7.4) at a positive charge concentration of 20 mM (considering that 3 amine functions are protonated at neutral pH). The lipoplexes were then prepared in accordance with the protocol described by Vigneron et al. (PNAS, 93, pp. 9682-9686, September. 1996) or by Patel et al. (Biochem. and Biophys. Res. Comm., 281, pp. 536-543, 2001).
Cell culture: HeLa cells (American Type Culture Collection (ATCC) Rockville, Md., USA) derived from a human cervical epithelium carcinoma were cultured in the presence of a medium of the MEM (minimum essential medium) type supplemented with 10% of fetal calf serum and antibiotics. The medium and the additives came from Gibco/BRL Life Technologies (Gaithersburg, Md., USA). The cells were cultured in flasks at 37° C. and at 5% of carbon dioxide in an incubator. […]
A 20 μl aliquot of supernatant of the centrifuged lysate was diluted in 100 μl of lysis buffer, to which 4 μl of 25 mM ATP (Sigma) and 20 μl of 25 mM luciferin (Sigma) were added. The samples were then placed in a Lumet LB9501 luminometer (Berthold, Nashua, N.H.) and the light emission integration value was measured for 10 seconds. […]

[4] = test system: various cell lines (16HBE, HepG2); test: In vitro transfection activity spectrum in other, less conventional cell lines (luciferase); assay type: cell-based; settings: charge ratios of between 3 and 5; KanaChol alone weaker in particular in 16HBE and HepG2
Experimental: FIG. 6: Expression of luciferase in various cell lines transfected either with the transfecting compound KanaChol or with the KanaChol/DOPE (1:1) liposomes. The various cell lines were transfected in accordance with the protocol described in Example 5 using either KanaChol/DNA lipoplexes or KanaChol/DOPE/DNA lipoplexes (with a positive charge ratio of 3-5) prepared by mixing 5 μg of plasmid DNA expressing luciferase and the required amount of lipid to obtain a positive charge ratio of 3-5. The data are expressed in relative light units (RLU) per mg of cellular proteins.
The in vitro transfection experiments carried out in Examples 4 and 5 were again carried out in a similar way, but with other less conventional cell lines (species and specificity of each cell line are indicated in FIG. 6). The KanaChol/DNA and KanaChol/DOPE/DNA formulations were used at charge ratios of between 3 and 5 (optimum values as defined in Examples 4 and 5).

SMILES: CC(C)CCCC(C)C1CCC2C3CC=C4CC(OC(=O)NCCSC[C@H]5O[C@@H](OC6C(O)[C@H](N)CC(N)[C@H]6O[C@H]6CC(CN)[C@@H](O)C(O)C6N)C(O)C5O[C@H]5OC(CN)[C@@H](O)C(O)C5N)CCC4(C)C3CCC12C (some centres unmarked) [NeoChol, (5″-aminoethylsulfanyl) neomycin carbamoyl cholesterol]
- transfection efficacy (luciferase expression) [1]: efficient transfection; also recorded: somewhat less efficient

SMILES: CC(C)CCCC(C)C1CCC2C3CC=C4CC(OC(=O)NCC5OC(OC6C(N)CC(N)C(OC7OC(CO)C(O)C(N)C7O)C6O)C(O)C(O)C5O)CCC4(C)C3CCC12C (stereo not drawn) [KanaChol, 3β[6′-kanamycin-carbamoyl]cholesterol]
- mean positive charge [2]: 2-3
- cytotoxicity (total extractable cellular proteins in the cell lysate) (HeLa cells): decrease in the total number of extractable cellular proteins
- cell line with highest transfection ([3]; HeLa, HEK293 and COS compared): highest in the COS cell line
- expression of the reporter gene luciferase (transfection) ([3]; lipoplexes with 5 μg plasmid DNA expressing luciferase, HeLa, HEK293 and COS cells, data in RLU per mg of cellular proteins): high expression levels
- theoretical mean charge ratio of optimum transfection efficiency ([3]; lipoplexes with 5 μg plasmid DNA, 3 cell lines): approximately 5
- charge ratio at which the transfection efficiency decreases ([3]; very high charge ratios): > 7
- transfection efficiency (luciferase expression) [4]: less efficient overall

Source: patent US7772003B2, “Lipid derivatives of aminoglycosides” (Aventis Pharma S.A., priority 2001, dated 2010)
